Assay results reported in US20070167492A1, “Molluscicidal agents” (priority 2003, published 2007).

Key:
[1] = system: Deroceras reticulatum (grey field slug); assay: Example 1: pot test, treated winter wheat seed with 5 adult slugs per pot, 14 days; format: in vivo
How it was run: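 Fludioxonil-disinfected winter wheat seed (Kampa, 40 per pot) sown on quartz sand over potting soil with 5 adult slugs per pot; ±15° C., ±90% RH, 12 h light/12 h dark, 4 replicates. Damaged seeds, plants, dead slugs and fecal pellets counted up to day 14; F-tests and Student-tests.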

[2] = system: Winter wheat (Kampa race) seeds; assay: Seed germination test of treated winter wheat seeds (rolled in paper); format: in vivo; details: 3x50 seeds, 6 days at 22° C.
How it was run: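 Seeds were disinfected with fludioxonil-containing Beret Gold (2 ml per kg seed) and coated with Sepiret® for formulations unsuitable for coating. Germination of 3×50 seeds rolled in paper was scored after 6 days at continuous 22° C. under a 16 hours light regime.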

[3] = 2 ml formulated per kg seed, 2 days after sowing
[4] = 2 ml formulated per kg seed, 3 days after sowing
[5] = 2 ml formulated per kg seed, 7 days after sowing
[6] = 2 ml formulated per kg seed, 10 days after sowing
[7] = 2 ml formulated per kg seed, 14 days after sowing
[8] = 4 ml formulated per kg seed, 2 days after sowing
[9] = 4 ml formulated per kg seed, 3 days after sowing
[10] = 4 ml formulated per kg seed, 7 days after sowing
[11] = 4 ml formulated per kg seed, 10 days after sowing
[12] = 4 ml formulated per kg seed, 14 days after sowing
[13] = 10 ml formulated per kg seed, 2 days after sowing
[14] = 10 ml formulated per kg seed, 3 days after sowing
[15] = 10 ml formulated per kg seed, 7 days after sowing
[16] = 10 ml formulated per kg seed, 10 days after sowing
[17] = 10 ml formulated per kg seed, 14 days after sowing

## O=CC=Cc1ccccc1 [cinnamaldehyde]
[1]; 2 ml formulated per kg seed
  number of utilizable plants after 14 days: 6.8
  percentage of damaged seeds after 14 days: 64%
[1]; [3]
  Mean number of damaged seeds per pot: 2.0
  Mean number of dead slugs per pot: 0
[1]; [4]
  Mean number fecal pellets per pot: 47
  Mean number of damaged seeds per pot: 5.5
  Mean number of dead slugs per pot: 1.3
  Mean number of plants present per pot: 3.3
[1]; [5]
  Mean number fecal pellets per pot: 71
  Mean number of damaged seeds per pot: 24.5
  Mean number of dead slugs per pot: 1.3
  Mean number of plants present per pot: 5.0
[1]; [6]
  Mean number fecal pellets per pot: 80
  Mean number of damaged seeds per pot: 24.8
  Mean number of dead slugs per pot: 1.3
  Mean number of plants present per pot: 6.8
[1]; [7]
  Mean number fecal pellets per pot: 95
  Mean number of damaged seeds per pot: 25.8
  Mean number of dead slugs per pot: 1.8
  Mean number of plants present per pot: 6.8
[1]; 4 ml formulated per kg seed
  number of utilizable plants after 14 days: 0.5
  percentage of damaged seeds after 14 days: 73%
[1]; [8]
  Mean number of damaged seeds per pot: 3.3
  Mean number of dead slugs per pot: 0
[1]; [9]
  Mean number fecal pellets per pot: 46
  Mean number of damaged seeds per pot: 6.5
  Mean number of dead slugs per pot: 0
  Mean number of plants present per pot: 3.0
[1]; [10]
  Mean number fecal pellets per pot: 111
  Mean number of damaged seeds per pot: 26.5
  Mean number of dead slugs per pot: 0.3
  Mean number of plants present per pot: 1.3
[1]; [11]
  Mean number fecal pellets per pot: 152
  Mean number of damaged seeds per pot: 27.0
  Mean number of dead slugs per pot: 0.3
  Mean number of plants present per pot: 1.8
[1]; [12]
  Mean number fecal pellets per pot: 160
  Mean number of damaged seeds per pot: 29.0
  Mean number of dead slugs per pot: 0.8
  Mean number of plants present per pot: 0.8
[1]; 10 ml formulated per kg seed
  number of utilizable plants after 14 days: 0.5
  percentage of damaged seeds after 14 days: 37%
[1]; [13]
  Mean number of damaged seeds per pot: 4.0
  Mean number of dead slugs per pot: 0
[1]; [14]
  Mean number fecal pellets per pot: 54
  Mean number of damaged seeds per pot: 7.0
  Mean number of dead slugs per pot: 1.3
  Mean number of plants present per pot: 5.0
[1]; [15]
  Mean number fecal pellets per pot: 58
  Mean number of damaged seeds per pot: 10.3
  Mean number of dead slugs per pot: 1.3
  Mean number of plants present per pot: 0.3
[1]; [16]
  Mean number fecal pellets per pot: 77
  Mean number of damaged seeds per pot: 10.3
  Mean number of dead slugs per pot: 1.3
  Mean number of plants present per pot: 0.5
[1]; [17]
  Mean number fecal pellets per pot: 93
  Mean number of damaged seeds per pot: 14.8
  Mean number of dead slugs per pot: 1.3
  Mean number of plants present per pot: 0.8
[1]; Example 1, 2 or 10 ml per kg of seed, 3 days after the start
  dead slugs relative to the untreated seed: significantly more dead slugs
[1]; Example 1, all dosages (2, 4, 10 ml/kg), after 3 and 7 days
  damaged seeds relative to the untreated seed: significantly less damaged seeds
[1]; Example 1, winter wheat seed treatment, dosages tested
  protection / slug controlling effect (conclusion): no protection to the plant
[2]; 2 ml formulated per kg seed
  Percentage germinated: 25%
[2]; 4 ml formulated per kg seed
  Percentage germinated: 0%
[2]; 10 ml formulated per kg seed
  Percentage germinated: 0%
